Laboratory results from patent US20230002367A1, “BIFUNCTIONAL COMPOUNDS” (Hoffmann-La Roche Inc., priority 2019, published 2023).

Target: T1, SMARCA2 (Homo sapiens, UniProt P51531)
T1 construct: endogenous in cells
Test: SMARCA2 HiBiT degradation assay (cellular)
Type: cell-based
Conditions: for Emax: A549, Emax = amount of residual protein remaining in the cell following compound treatment; for DC50: SMARCA2 HiBiT cells, luminescence readout, 11-point titration from 10 μM, 6 hours or 16 hours, read-out: HiBit A549 SMARCA2 IP

T1 sequence (P51531 whole entry): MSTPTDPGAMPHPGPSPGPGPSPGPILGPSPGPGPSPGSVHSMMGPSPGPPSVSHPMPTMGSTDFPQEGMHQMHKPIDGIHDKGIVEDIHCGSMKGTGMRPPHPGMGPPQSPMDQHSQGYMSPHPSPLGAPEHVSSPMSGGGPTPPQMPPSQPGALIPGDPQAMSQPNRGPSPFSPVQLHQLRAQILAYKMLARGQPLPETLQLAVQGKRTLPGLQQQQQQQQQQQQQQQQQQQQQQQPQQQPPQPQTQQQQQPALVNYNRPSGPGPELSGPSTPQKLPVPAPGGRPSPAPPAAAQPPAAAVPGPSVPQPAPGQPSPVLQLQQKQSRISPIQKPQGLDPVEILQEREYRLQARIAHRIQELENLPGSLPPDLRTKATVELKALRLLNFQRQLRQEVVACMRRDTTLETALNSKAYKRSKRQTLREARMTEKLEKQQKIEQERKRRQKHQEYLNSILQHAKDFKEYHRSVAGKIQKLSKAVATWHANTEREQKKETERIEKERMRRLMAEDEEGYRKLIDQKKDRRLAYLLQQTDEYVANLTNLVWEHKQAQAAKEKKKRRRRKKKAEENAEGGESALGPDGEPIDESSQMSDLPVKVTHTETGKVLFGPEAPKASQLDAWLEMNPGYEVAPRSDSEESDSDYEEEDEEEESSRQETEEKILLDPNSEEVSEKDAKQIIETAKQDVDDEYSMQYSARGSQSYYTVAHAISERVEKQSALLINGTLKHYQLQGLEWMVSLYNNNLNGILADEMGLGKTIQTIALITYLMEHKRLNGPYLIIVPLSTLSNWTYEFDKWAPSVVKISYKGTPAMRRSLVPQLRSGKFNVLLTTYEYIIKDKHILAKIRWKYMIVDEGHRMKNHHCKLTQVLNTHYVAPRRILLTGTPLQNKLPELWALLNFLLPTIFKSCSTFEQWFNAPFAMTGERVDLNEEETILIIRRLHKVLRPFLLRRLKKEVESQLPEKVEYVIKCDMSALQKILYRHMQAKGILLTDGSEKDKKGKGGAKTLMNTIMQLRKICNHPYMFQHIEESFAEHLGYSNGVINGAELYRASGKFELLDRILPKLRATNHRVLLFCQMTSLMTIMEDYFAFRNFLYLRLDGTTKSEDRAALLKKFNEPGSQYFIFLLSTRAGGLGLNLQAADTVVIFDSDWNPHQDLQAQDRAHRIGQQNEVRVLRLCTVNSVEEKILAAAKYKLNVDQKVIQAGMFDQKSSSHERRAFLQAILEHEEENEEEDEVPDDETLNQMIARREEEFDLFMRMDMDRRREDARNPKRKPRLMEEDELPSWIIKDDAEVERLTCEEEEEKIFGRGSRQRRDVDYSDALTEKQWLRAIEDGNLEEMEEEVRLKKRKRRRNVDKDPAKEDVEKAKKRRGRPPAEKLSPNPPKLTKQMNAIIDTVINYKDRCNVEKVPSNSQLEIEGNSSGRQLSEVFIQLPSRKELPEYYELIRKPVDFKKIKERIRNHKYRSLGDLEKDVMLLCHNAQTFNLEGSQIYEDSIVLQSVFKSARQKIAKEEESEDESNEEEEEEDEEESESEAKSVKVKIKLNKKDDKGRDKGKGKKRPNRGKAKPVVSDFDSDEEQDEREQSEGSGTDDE

| SMILES | Emax | DC50 | HiBit A549 SMARCA2 Emax (%) (Emax = amount of residual protein remaining in the cell following compound treatment) |
| --- | --- | --- | --- |
| Cc1ncsc1-c1ccc([C@H](C)NC(=O)[C@@H]2C[C@@H](O)CN2C(=O)[C@@H](NC(=O)CCCCCCCCC(=O)N2CCN(c3ccc(CN4CCCC(Oc5cc(-c6ccccc6O)nnc5N)C4)cc3)CC2)C(C)(C)C)cc1 (mixture of isomers) [Example 41, rac-(2S,4R)-4-hydroxy-1-[rac-(2S)-2-[[10-[4-[4-[[3-[3-amino-6-(2-hydroxyphenyl)pyridazin-4-yl]oxy-1-piperidyl]methyl]phenyl]piperazin-1-yl]-10-oxo-decanoyl]amino]-3,3-dimethyl-butanoyl]-N-[rac-(1S)-1-[4-(4-methylthiazol-5-yl)phenyl]ethyl]pyrrolidine-2-carboxamide] | 63% | 0.204 µM |  |
| Cc1ncsc1-c1ccc([C@H](C)NC(=O)[C@@H]2C[C@@H](O)CN2C(=O)[C@@H](NC(=O)CCOCCOCCOCCC(=O)N2CCN(c3ccc(N4CCCC(Oc5cc(-c6ccccc6O)nnc5N)C4)cc3)CC2)C(C)(C)C)cc1 (mixture of isomers) [Example 46, rac-(2S,4R)-4-hydroxy-1-[rac-(2S)-2-[3-[2-[2-[3-[4-[4-[3-[3-amino-6-(2-hydroxyphenyl)pyridazin-4-yl]oxy-1-piperidyl]phenyl]piperazin-1-yl]-3-oxo-propoxy]ethoxy]ethoxy]propanoylamino]-3,3-dimethyl-butanoyl]-N-[rac-(1S)-1-[4-(4-methylthiazol-5-yl)phenyl]ethyl]pyrrolidine-2-carboxamide] | 51% | 2.61 µM |  |
| Cc1ncsc1-c1ccc([C@H](C)NC(=O)[C@@H]2C[C@@H](O)CN2C(=O)[C@@H](NC(=O)CCC(=O)N2CCN(c3ccc(N4CCCC(Oc5cc(-c6ccccc6O)nnc5N)C4)cc3)CC2)C(C)(C)C)cc1 (mixture of isomers) [Example 47, rac-(2S,4R)-4-hydroxy-1-[rac-(2S)-2-[[4-[4-[4-[3-[3-amino-6-(2-hydroxyphenyl)pyridazin-4-yl]oxy-1-piperidyl]phenyl]piperazin-1-yl]-4-oxo-butanoyl]amino]-3,3-dimethyl-butanoyl]-N-[rac-(1S)-1-[4-(4-methylthiazol-5-yl)phenyl]ethyl]pyrrolidine-2-carboxamide] | 55% | 0.733 µM |  |
| Cc1ncsc1-c1ccc([C@H](C)NC(=O)[C@@H]2C[C@@H](O)CN2C(=O)[C@@H](NC(=O)CCCCCCCCCCC(=O)N2CCN(c3ccc(N4CCCC(Oc5cc(-c6ccccc6O)nnc5N)C4)cc3)CC2)C(C)(C)C)cc1 (mixture of isomers) [Example 48, rac-(2S,4R)-4-hydroxy-1-[rac-(2S)-2-[[12-[4-[4-[3-[3-amino-6-(2-hydroxyphenyl)pyridazin-4-yl]oxy-1-piperidyl]phenyl]piperazin-1-yl]-12-oxo-dodecanoyl]amino]-3,3-dimethyl-butanoyl]-N-[rac-(1S)-1-[4-(4-methylthiazol-5-yl)phenyl]ethyl]pyrrolidine-2-carboxamide] | 22% | 0.135 µM |  |
| Cc1ncsc1-c1ccc([C@H](C)NC(=O)[C@@H]2C[C@@H](O)CN2C(=O)[C@@H](NC(=O)CCOCCC(=O)N(C)CC(COc2cc(-c3ccccc3O)nnc2N)c2ccccc2)C(C)(C)C)cc1 (mixture of isomers) [Example 49, rac-(2S,4R)-4-hydroxy-1-[rac-(2S)-2-[3-[3-[[3-[3-amino-6-(2-hydroxyphenyl)pyridazin-4-yl]oxy-2-phenyl-propyl]-methyl-amino]-3-oxo-propoxy]propanoylamino]-3,3-dimethyl-butanoyl]-N-[rac-(1S)-1-[4-(4-methylthiazol-5-yl)phenyl]ethyl]pyrrolidine-2-carboxamide] | 60% | 1.66 µM |  |
| Cc1ncsc1-c1ccc(CNC(=O)[C@@H]2C[C@@H](O)CN2C(=O)[C@@H](NC(=O)CCCCCCCCC(=O)NCC(COc2cc(-c3ccccc3O)nnc2N)c2ccccc2)C(C)(C)C)cc1 (mixture of isomers) [Example 51, N-[3-[3-amino-6-(2-hydroxyphenyl)pyridazin-4-yl]oxy-2-phenyl-propyl]-N′-[rac-(1S)-2,2-dimethyl-1-[rac-(2S,4R)-4-hydroxy-2-[[4-(4-methylthiazol-5-yl)phenyl]methylcarbamoyl]pyrrolidine-1-carbonyl]propyl]decanediamide] | 48% | 1.65 µM |  |
| Cc1ncsc1-c1ccc(CNC(=O)[C@@H]2C[C@@H](O)CN2C(=O)[C@@H](NC(=O)CCCCCC(=O)NC(COc2cc(-c3ccccc3O)nnc2N)c2ccccc2)C(C)(C)C)cc1 (mixture of isomers) [Example 62, N-[2-[3-amino-6-(2-hydroxyphenyl)pyridazin-4-yl]oxy-1-phenyl-ethyl]-N′-[rac-(1S)-2,2-dimethyl-1-[rac-(2S,4R)-4-hydroxy-2-[[4-(4-methylthiazol-5-yl)phenyl]methylcarbamoyl]pyrrolidine-1-carbonyl]propyl]heptanediamide] | 54% | 2.61 µM |  |
| Cc1ncsc1-c1ccc(CNC(=O)[C@@H]2C[C@@H](O)CN2C(=O)[C@@H](NC(=O)CCCCCCCCC(=O)NC(COc2cc(-c3ccccc3O)nnc2N)c2ccccc2)C(C)(C)C)cc1 (mixture of isomers) [Example 63, N-[2-[3-amino-6-(2-hydroxyphenyl)pyridazin-4-yl]oxy-1-phenyl-ethyl]-N′-[rac-(1S)-2,2-dimethyl-1-[rac-(2S,4R)-4-hydroxy-2-[[4-(4-methylthiazol-5-yl)phenyl]methylcarbamoyl]pyrrolidine-1-carbonyl]propyl]decanediamide] | 48% | 0.798 µM |  |
| Cc1ncsc1-c1ccc(CNC(=O)[C@@H]2C[C@@H](O)CN2C(=O)[C@@H](NC(=O)CCCCCCCCC(=O)N2CC(Oc3cc(-c4ccccc4O)nnc3N)CC(c3ccccc3)C2)C(C)(C)C)cc1 (mixture of isomers) [Example 65, rac-(2S,4R)-4-hydroxy-N-[[4-(4-methylthiazol-5-yl)phenyl]methyl]-1-[rac-(2S)-2-[[10-[3-[3-amino-6-(2-hydroxyphenyl)pyridazin-4-yl]oxy-5-phenyl-1-piperidyl]-10-oxo-decanoyl]amino]-3,3-dimethyl-butanoyl]pyrrolidine-2-carboxamide] | 24% | 1.03 µM |  |
| Cc1ncsc1-c1ccc(CNC(=O)[C@@H]2C[C@@H](O)CN2C(=O)[C@@H](NC(=O)CCCCCC(=O)N2CC(Oc3cc(-c4ccccc4O)nnc3N)CC(c3ccccc3)C2)C(C)(C)C)cc1 (mixture of isomers) [Example 66, Trans rac-(2S,4R)-4-hydroxy-N-[[4-(4-methylthiazol-5-yl)phenyl]methyl]-1-[rac-(2S)-2-[[7-[3-[3-amino-6-(2-hydroxyphenyl)pyridazin-4-yl]oxy-5-phenyl-1-piperidyl]-7-oxo-heptanoyl]amino]-3,3-dimethyl-butanoyl]pyrrolidine-2-carboxamide] | 49% | 2.02 µM |  |
| Cc1ncsc1-c1ccc(CNC(=O)[C@@H]2C[C@@H](O)CN2C(=O)[C@@H](NC(=O)CCCCCCCCC(=O)N2CC(Oc3cc(-c4ccccc4O)nnc3N)CC(c3ccccc3)C2)C(C)(C)C)cc1 (mixture of isomers) [Example 67, Trans rac-(2S,4R)-4-hydroxy-N-[[4-(4-methylthiazol-5-yl)phenyl]methyl]-1-[rac-(2S)-2-[[10-[3-[3-amino-6-(2-hydroxyphenyl)pyridazin-4-yl]oxy-5-phenyl-1-piperidyl]-10-oxo-decanoyl]amino]-3,3-dimethyl-butanoyl]pyrrolidine-2-carboxamide] |  | 0.839 µM | 29% |
| Cc1ncsc1-c1ccc([C@H](C)NC(=O)[C@@H]2C[C@@H](O)CN2C(=O)[C@@H](NC(=O)CCC(=O)N2CCN(CCOc3cccc(N4CCCC(Oc5cc(-c6ccccc6O)nnc5N)C4)c3)CC2)C(C)(C)C)cc1 (mixture of isomers) [Example 69, rac-(2S,4R)-4-hydroxy-1-[rac-(2S)-2-[[4-[4-[2-[3-[3-[3-amino-6-(2-hydroxyphenyl)pyridazin-4-yl]oxy-1-piperidyl]phenoxy]ethyl]piperazin-1-yl]-4-oxo-butanoyl]amino]-3,3-dimethyl-butanoyl]-N-[rac-(1S)-1-[4-(4-methylthiazol-5-yl)phenyl]ethyl]pyrrolidine-2-carboxamide] | 60% | 2.11 µM |  |
| Cc1ncsc1-c1ccc([C@H](C)NC(=O)[C@@H]2C[C@@H](O)CN2C(=O)[C@@H](NC(=O)CCCCCC(=O)N2CCN(CCOc3cccc(N4CCCC(Oc5cc(-c6ccccc6O)nnc5N)C4)c3)CC2)C(C)(C)C)cc1 (mixture of isomers) [Example 70, rac-(2S,4R)-4-hydroxy-1-[rac-(2S)-2-[[7-[4-[2-[3-[3-[3-amino-6-(2-hydroxyphenyl)pyridazin-4-yl]oxy-1-piperidyl]phenoxy]ethyl]piperazin-1-yl]-7-oxo-heptanoyl]amino]-3,3-dimethyl-butanoyl]-N-[rac-(1S)-1-[4-(4-methylthiazol-5-yl)phenyl]ethyl]pyrrolidine-2-carboxamide] | 50% | 1.18 µM |  |
| Cc1ncsc1-c1ccc([C@H](C)NC(=O)[C@@H]2C[C@@H](O)CN2C(=O)[C@@H](NC(=O)CCCCCCCCC(=O)N2CCN(CCOc3cccc(N4CCCC(Oc5cc(-c6ccccc6O)nnc5N)C4)c3)CC2)C(C)(C)C)cc1 (mixture of isomers) [Example 71, rac-(2S,4R)-4-hydroxy-1-[rac-(2S)-2-[[10-[4-[2-[3-[3-[3-amino-6-(2-hydroxyphenyl)pyridazin-4-yl]oxy-1-piperidyl]phenoxy]ethyl]piperazin-1-yl]-10-oxo-decanoyl]amino]-3,3-dimethyl-butanoyl]-N-[rac-(1S)-1-[4-(4-methylthiazol-5-yl)phenyl]ethyl]pyrrolidine-2-carboxamide] | 38% | 0.522 µM |  |
| Cc1ncsc1-c1ccc([C@H](C)NC(=O)[C@@H]2C[C@@H](O)CN2C(=O)[C@@H](NC(=O)CCCCCCCCCCC(=O)N2CCN(CCOc3cccc(N4CCCC(Oc5cc(-c6ccccc6O)nnc5N)C4)c3)CC2)C(C)(C)C)cc1 (mixture of isomers) [Example 72, rac-(2S,4R)-4-hydroxy-1-[rac-(2S)-2-[[12-[4-[2-[3-[3-[3-amino-6-(2-hydroxyphenyl)pyridazin-4-yl]oxy-1-piperidyl]phenoxy]ethyl]piperazin-1-yl]-12-oxo-dodecanoyl]amino]-3,3-dimethyl-butanoyl]-N-[rac-(1S)-1-[4-(4-methylthiazol-5-yl)phenyl]ethyl]pyrrolidine-2-carboxamide] | 35% | 0.421 µM |  |
